Columns and labels:
[1] = Inhibition of PHK from rabbit skeletal muscle; assay type: tissue-based, Oryctolagus cuniculus, Muscle tissue
[2] = target: Serine/threonine-protein kinase N2 (Homo sapiens) (UniProt Q16513); experiment: Inhibition of His-tagged human PRK2 expressed in HEK293 cells at 10 uM; assay type: cell-based
[3] = Inhibition of MAPKAPK1b from rabbit skeletal muscle; assay type: tissue-based, Oryctolagus cuniculus, Muscle tissue
Oryctolagus cuniculus [4] = organism: Oryctolagus cuniculus; conditions: at 10 µM
Description: Inhibition of rabbit MKK1 expressed in Escherichia coli at 10 uM

[5] = target: Mitogen-activated protein kinase 1 (Homo sapiens) (UniProt P28482); conditions: at 10 µM
Description: Inhibition of Gst-tagged human MAPK2/ERK2 expressed in Escherichia coli at 10 uM

[6] = target: Mitogen-activated protein kinase 8 (Homo sapiens) (UniProt P45983); conditions: at 10 µM
Description: Inhibition of Gst-tagged human JNK1a1 expressed in Escherichia coli at 10 uM

[7] = target: Mitogen-activated protein kinase 14 (Homo sapiens) (UniProt Q16539); conditions: at 10 µM
Description: Inhibition of Gst-tagged human SAPK2a/p38 expressed in Escherichia coli at 10 uM

[8] = target: Mitogen-activated protein kinase 11 (Homo sapiens) (UniProt Q15759); conditions: at 10 µM
Description: Inhibition of Gst-tagged human SAPK2b/p38--beta-2 expressed in Escherichia coli at 10 uM

[9] = target: T1, Mitogen-activated protein kinase 12 (Homo sapiens) (UniProt P53778); conditions: at 10 µM
T1 sequence (whole entry): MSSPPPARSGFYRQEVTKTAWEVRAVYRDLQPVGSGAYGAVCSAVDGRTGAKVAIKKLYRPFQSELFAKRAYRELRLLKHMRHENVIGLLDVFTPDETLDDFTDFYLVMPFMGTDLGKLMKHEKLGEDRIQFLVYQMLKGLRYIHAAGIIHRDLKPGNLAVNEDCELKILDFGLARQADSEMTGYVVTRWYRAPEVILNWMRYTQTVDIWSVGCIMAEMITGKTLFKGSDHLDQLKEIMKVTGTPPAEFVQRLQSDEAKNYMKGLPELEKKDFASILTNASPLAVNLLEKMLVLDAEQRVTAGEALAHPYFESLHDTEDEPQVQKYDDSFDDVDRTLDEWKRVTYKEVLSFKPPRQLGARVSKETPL
Description: Inhibition of Gst-tagged human SAPK3/p38gamma expressed in Escherichia coli at 10 uM

[10] = target: T2, Mitogen-activated protein kinase 13 (Homo sapiens) (UniProt O15264); conditions: at 10 µM
T2 sequence (whole entry): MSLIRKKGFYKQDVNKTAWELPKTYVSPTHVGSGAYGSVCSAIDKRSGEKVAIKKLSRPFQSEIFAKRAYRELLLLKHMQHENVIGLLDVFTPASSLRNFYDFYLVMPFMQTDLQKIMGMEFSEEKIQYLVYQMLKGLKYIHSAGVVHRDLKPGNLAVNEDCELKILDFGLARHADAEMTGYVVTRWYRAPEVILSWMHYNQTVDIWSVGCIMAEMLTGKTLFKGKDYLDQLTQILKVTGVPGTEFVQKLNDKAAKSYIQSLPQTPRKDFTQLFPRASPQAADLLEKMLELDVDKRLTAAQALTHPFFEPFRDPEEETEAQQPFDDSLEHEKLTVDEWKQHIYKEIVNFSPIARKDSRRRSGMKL
Description: Inhibition of Gst-tagged human SAPK4/p38delta expressed in Escherichia coli at 10 uM

Oryctolagus cuniculus [11] = organism: Oryctolagus cuniculus; conditions: Muscle tissue, at 10 µM
Description: Inhibition of MAPKAPK1b from rabbit skeletal muscle at 10 uM

[12] = target: MAP kinase-activated protein kinase 2 (Homo sapiens, UniProt P49137); conditions: at 10 µM
Description: Inhibition of Gst-tagged human MAPKAPK2 expressed in Escherichia coli at 10 uM

[13] = target: Ribosomal protein S6 kinase alpha-5 (Homo sapiens, UniProt O75582); conditions: Sf9, at 10 µM
Description: Inhibition of His-tagged human MSK1 expressed in Sf9 cells at 10 uM

[14] = target: T3, MAP kinase-activated protein kinase 5 (Homo sapiens) (UniProt Q8IW41); conditions: Sf9, at 10 µM
T3 sequence (whole entry): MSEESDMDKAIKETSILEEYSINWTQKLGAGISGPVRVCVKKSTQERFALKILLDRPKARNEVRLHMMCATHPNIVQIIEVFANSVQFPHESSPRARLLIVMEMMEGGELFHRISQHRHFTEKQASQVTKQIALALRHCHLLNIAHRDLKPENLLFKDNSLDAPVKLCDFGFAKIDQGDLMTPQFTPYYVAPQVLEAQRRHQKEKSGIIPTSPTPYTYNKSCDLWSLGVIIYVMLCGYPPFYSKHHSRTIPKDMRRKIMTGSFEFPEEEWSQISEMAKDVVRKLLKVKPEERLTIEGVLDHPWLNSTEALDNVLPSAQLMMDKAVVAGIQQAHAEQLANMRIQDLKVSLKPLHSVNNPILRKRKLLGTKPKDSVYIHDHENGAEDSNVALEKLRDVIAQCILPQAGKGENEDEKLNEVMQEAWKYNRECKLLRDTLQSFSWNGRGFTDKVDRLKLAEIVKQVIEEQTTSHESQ
Description: Inhibition of His-tagged human PRAK expressed in Sf9 cells at 10 uM

Bos taurus = organism: Bos taurus; conditions: at 10 µM
Description: Inhibition of bovine heart PKA at 10 uM

[15] = target: Protein kinase C alpha type (Homo sapiens, UniProt P17252); conditions: at 10 µM
Description: Inhibition of His-tagged human PKCalpha expressed in Escherichia coli at 10 uM

[16] = target: RAC-alpha serine/threonine-protein kinase (Homo sapiens) (UniProt P31749); conditions: Sf9, at 10 µM
Description: Inhibition of human PKBalpha expressed in SF9 cells at 10 uM

[17] = target: T4, Serine/threonine-protein kinase Sgk1 (Homo sapiens) (UniProt O00141); conditions: Sf9, at 10 µM
T4 sequence (whole entry): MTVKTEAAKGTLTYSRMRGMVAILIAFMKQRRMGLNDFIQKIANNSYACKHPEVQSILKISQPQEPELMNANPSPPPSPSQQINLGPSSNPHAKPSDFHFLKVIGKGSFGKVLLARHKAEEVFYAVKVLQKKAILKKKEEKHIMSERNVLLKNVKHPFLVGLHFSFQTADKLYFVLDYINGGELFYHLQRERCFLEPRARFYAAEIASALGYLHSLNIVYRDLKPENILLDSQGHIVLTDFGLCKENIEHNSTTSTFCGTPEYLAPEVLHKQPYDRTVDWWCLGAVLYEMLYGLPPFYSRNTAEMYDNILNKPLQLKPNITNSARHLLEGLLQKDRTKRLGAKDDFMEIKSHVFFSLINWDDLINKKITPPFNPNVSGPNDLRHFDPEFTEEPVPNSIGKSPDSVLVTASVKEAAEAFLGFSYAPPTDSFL
Description: Inhibition of His-tagged human SGK expressed in Sf9 cells at 10 uM

[18] = target: Ribosomal protein S6 kinase beta-1 (Homo sapiens, UniProt P23443); conditions: at 10 µM
Description: Inhibition of His-tagged human S6K1 expressed in Escherichia coli at 10 uM

[19] = target: Glycogen synthase kinase-3 beta (Homo sapiens, UniProt P49841); conditions: Sf21, at 10 µM
Description: Inhibition of His-tagged human GSK3b expressed in Sf21 cells at 10 uM

[20] = target: Rho-associated protein kinase 2 (Rattus norvegicus) (UniProt Q62868); conditions: Sf9, at 10 µM
Description: Inhibition of rat ROCK2 expressed in Sf9 cells at 10 uM

Rattus norvegicus = organism: Rattus norvegicus; conditions: at 10 µM
Description: Inhibition of rat liver AMPK at 10 uM

[21] = target: Casein kinase II (Homo sapiens) (UniProt P67870+P68400+P19784); conditions: Sf9, at 10 µM
Description: Inhibition of His-tagged human CK2 expressed in Sf9 cells at 10 uM

Oryctolagus cuniculus [22] = organism: Oryctolagus cuniculus; conditions: Muscle tissue, at 10 µM; remark: listed apart in the source
Description: Inhibition of PHK from rabbit skeletal muscle at 10 uM

[23] = target: T5, Serine/threonine-protein kinase Chk1 (Homo sapiens) (UniProt O14757); conditions: at 10 µM
T5 sequence (whole entry): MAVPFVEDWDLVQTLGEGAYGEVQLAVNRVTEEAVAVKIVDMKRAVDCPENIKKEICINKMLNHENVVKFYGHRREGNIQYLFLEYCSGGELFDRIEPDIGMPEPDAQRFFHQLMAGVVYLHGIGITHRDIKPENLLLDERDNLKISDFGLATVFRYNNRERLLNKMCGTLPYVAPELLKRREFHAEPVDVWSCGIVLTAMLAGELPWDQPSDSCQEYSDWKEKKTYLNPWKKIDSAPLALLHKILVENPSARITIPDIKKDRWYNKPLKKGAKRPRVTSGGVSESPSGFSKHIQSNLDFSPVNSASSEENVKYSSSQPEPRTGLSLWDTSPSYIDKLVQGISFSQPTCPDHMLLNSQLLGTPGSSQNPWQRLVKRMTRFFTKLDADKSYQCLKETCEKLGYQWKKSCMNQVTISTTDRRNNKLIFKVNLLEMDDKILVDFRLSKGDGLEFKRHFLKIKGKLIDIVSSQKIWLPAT
Description: Inhibition of His-tagged human CHK1 expressed in Escherichia coli at 10 uM

Mus musculus = organism: Mus musculus; experiment: Inhibition of EGF-induced activation of MKK1 in mouse […] at 2 nM; assay type: cell-based
[24] = target: Tyrosine-protein kinase Lck (Homo sapiens) (UniProt P06239); conditions: Sf9, at 10 µM
Description: Inhibition of His-tagged human LCK expressed in Sf9 cells at 10 uM

Sequence of Glycogen synthase kinase-3 beta (P49841 whole entry, looked up): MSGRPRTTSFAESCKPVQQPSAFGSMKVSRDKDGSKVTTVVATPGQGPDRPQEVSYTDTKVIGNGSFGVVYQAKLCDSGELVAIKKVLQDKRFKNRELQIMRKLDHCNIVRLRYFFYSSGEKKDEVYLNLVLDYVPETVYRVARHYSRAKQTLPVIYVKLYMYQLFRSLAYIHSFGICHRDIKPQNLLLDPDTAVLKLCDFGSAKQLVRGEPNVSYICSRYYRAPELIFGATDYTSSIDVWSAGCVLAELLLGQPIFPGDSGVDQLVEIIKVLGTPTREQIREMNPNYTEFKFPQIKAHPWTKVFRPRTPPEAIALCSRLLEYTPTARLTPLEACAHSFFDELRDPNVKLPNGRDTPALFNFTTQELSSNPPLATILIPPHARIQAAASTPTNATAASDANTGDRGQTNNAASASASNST
Sequence of Mitogen-activated protein kinase 1 (Homo sapiens) (P28482 whole entry): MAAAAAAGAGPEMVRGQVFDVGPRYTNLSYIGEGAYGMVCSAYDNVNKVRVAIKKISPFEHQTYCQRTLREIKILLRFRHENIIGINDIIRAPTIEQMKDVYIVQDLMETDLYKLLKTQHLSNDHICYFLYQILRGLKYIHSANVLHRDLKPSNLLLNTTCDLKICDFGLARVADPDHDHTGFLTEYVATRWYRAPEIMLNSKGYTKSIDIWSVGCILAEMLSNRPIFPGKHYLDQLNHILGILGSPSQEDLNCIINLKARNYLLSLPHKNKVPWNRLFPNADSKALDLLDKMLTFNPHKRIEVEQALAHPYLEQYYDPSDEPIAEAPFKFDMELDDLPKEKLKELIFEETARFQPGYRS
Sequence of Ribosomal protein S6 kinase alpha-5 (O75582 whole entry, looked up): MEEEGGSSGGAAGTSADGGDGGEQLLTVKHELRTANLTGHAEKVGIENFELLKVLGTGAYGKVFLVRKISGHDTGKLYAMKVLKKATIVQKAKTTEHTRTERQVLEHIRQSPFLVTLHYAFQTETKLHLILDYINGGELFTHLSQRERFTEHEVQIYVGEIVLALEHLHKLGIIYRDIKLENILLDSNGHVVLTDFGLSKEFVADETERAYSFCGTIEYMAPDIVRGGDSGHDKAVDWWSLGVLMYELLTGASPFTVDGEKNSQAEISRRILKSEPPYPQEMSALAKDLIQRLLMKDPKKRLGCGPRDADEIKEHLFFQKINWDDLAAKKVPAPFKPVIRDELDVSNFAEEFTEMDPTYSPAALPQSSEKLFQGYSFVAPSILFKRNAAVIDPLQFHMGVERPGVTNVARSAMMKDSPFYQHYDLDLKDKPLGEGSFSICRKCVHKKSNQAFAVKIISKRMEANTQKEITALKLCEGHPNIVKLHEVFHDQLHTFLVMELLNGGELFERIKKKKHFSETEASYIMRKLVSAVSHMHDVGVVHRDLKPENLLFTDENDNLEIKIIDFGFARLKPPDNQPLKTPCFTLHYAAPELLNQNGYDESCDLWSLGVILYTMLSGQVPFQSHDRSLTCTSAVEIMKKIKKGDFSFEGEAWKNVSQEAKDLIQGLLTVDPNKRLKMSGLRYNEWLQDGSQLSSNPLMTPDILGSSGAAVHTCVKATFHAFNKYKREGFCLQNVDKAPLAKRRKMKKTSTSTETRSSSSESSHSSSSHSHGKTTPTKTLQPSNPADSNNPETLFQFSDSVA
Sequence of MAP kinase-activated protein kinase 2 (P49137 whole entry, looked up): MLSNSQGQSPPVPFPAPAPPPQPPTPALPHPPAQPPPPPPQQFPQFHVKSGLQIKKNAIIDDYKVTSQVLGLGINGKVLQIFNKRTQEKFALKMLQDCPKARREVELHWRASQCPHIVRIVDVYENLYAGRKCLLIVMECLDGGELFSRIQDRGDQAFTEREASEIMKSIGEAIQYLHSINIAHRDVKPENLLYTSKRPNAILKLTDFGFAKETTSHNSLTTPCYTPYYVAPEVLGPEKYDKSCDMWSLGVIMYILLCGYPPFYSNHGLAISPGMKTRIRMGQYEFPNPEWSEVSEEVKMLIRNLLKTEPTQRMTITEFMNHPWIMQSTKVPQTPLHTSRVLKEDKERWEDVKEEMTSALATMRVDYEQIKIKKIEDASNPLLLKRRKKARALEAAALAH
Sequence of Mitogen-activated protein kinase 14 (Homo sapiens) (Q16539 whole entry): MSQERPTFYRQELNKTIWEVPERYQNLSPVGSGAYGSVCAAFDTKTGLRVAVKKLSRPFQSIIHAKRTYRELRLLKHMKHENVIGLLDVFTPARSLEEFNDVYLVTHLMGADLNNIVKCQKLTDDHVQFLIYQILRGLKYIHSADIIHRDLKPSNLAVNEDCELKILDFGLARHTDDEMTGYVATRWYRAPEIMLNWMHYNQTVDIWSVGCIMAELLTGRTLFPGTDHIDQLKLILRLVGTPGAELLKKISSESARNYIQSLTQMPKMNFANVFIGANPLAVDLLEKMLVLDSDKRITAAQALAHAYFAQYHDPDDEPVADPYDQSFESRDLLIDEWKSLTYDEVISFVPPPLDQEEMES
Sequence of Rho-associated protein kinase 2 (Rattus norvegicus) (Q62868 whole entry, looked up): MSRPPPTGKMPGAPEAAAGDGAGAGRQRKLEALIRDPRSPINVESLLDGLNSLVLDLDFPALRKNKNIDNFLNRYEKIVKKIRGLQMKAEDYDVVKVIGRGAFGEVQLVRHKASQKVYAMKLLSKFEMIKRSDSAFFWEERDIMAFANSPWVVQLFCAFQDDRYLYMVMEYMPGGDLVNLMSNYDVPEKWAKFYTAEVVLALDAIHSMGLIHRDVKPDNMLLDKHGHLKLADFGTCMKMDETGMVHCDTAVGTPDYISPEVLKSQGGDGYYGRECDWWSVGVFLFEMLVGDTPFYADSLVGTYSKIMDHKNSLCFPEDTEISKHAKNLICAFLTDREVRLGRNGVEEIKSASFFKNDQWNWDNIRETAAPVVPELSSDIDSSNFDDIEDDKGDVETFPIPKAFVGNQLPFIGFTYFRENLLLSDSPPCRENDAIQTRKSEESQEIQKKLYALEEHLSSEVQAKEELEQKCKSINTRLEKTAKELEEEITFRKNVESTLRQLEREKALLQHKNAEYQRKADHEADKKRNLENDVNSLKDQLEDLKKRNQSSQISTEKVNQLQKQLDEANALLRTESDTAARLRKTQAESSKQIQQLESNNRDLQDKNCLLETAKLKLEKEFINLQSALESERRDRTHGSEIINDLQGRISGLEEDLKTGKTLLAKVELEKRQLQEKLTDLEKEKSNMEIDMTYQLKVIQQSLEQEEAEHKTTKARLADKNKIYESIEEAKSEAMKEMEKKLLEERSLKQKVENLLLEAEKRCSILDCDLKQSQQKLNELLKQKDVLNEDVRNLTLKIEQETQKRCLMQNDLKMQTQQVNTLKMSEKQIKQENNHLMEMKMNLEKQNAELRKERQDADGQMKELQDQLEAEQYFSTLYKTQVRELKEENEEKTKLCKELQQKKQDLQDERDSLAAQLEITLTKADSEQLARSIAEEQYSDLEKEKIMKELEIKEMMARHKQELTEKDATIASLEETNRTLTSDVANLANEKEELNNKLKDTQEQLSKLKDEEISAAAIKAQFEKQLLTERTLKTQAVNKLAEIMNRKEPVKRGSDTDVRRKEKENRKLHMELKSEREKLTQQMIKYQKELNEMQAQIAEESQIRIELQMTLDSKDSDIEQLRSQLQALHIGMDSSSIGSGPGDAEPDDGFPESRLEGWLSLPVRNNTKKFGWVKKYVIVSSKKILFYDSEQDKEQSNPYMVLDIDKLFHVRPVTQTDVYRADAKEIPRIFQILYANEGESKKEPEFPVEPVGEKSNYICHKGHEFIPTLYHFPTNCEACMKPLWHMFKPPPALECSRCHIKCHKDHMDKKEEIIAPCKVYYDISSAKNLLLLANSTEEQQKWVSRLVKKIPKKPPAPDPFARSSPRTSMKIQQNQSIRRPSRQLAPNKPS
Sequence of Mitogen-activated protein kinase 11 (Homo sapiens) (Q15759 whole entry): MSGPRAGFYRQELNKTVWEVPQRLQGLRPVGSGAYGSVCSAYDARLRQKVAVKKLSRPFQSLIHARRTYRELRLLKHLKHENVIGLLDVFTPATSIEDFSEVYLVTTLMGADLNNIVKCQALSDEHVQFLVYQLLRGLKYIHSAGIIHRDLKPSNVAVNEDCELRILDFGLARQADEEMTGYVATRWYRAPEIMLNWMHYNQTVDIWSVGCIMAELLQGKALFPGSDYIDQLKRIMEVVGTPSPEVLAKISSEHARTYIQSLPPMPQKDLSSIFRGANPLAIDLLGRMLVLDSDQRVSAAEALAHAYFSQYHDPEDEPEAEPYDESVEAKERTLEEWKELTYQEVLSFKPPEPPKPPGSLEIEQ

Row | SMILES | residual activity [5] [%] | residual activity [6] [%] | residual activity [7] [%] | residual activity [8] [%] | residual activity [9] [%] | residual activity [10] [%] | residual activity [12] [%] | residual activity [13] [%] | residual activity [14] [%] | residual activity (Bos taurus) [%] | residual activity [15] [%] | residual activity [16] [%] | residual activity [17] [%] | residual activity [19] [%] | residual activity [20] [%] | residual activity (Rattus norvegicus) [%] | residual activity [21] [%] | level, % of control (Oryctolagus cuniculus [22]) [%] | residual activity [23] [%] | further results
1 | C[C@@H](N)[C@H]1CC[C@H](C(=O)Nc2ccncc2)CC1 [Y-27632] | 94 | 98 | 94 | 107 | 100 | 95 | 99 | 57 | 104 | 91 | 98 | 90 | 109 | 92 | 13 | 95 | 98 | 81 | 99 | IC50 [1]: 44 µM; inhibition [2]: 6%; IC50 [3]: 19 µM; residual activity (Oryctolagus cuniculus [4]): 103%; level, % of control (Oryctolagus cuniculus [11]): 72%; residual activity [18]: 94%
2 | O=C(NOCC1CC1)c1ccc(F)c(F)c1Nc1ccc(I)cc1Cl | 107 | 102 | 100 | 119 | 100 | 98 | 98 | 118 | 71 | 105 | 99 | 89 | 111 | 83 | 107 | 89 | 96 | 117 | 104 | inhibition (Mus musculus): 50%; residual activity [24]: 99%

From ChEMBL document CHEMBL1240295, “Specificity and mechanism of action of some commonly used protein kinase inhibitors” (Biochem J, 2000)
